According to the supplement of paper PMC10307832:

What was measured:
Test in all cases: relative viability (nuclei count vs DMSO), 5 days (fraction); higher = more cells survive
[1] = test system: ChaGo-K-1
How it was run: (§1)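 A single step with final 0.05% Triton X-100, 1% formaldehyde and 1 ug/ml Hoechst fixed the cells and stained nuclei 5 days after treatment. Lung cancer cell lines in 1536-well plates had been treated by pin tool the day after seeding with one drug alone or a fixed anchor-drug dose plus five library-drug doses (not always all listed) in √10 steps, and nuclei were counted on 4× images. Relative viability is the ratio of nuclei in treated wells to nuclei in vehicle wells, taken as the median of duplicate plates.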

[2] = test system: EKVX
How it was run: as §1

[3] = test system: EMC-BAC-2
How it was run: as §1

[4] = test system: EPLC-272H
How it was run: as §1

[5] = test system: HCC-78
How it was run: as §1

[6] = test system: HCC-827
How it was run: as §1

[7] = test system: LCLC-103H
How it was run: as §1

[8] = test system: LK-2
How it was run: as §1

[9] = test system: LU99A
How it was run: as §1

[10] = test system: LXF-289
How it was run: as §1

[11] = test system: NCI-H1563
How it was run: as §1

[12] = test system: NCI-H1666
How it was run: as §1

[13] = test system: NCI-H1975
How it was run: as §1

[14] = test system: NCI-H2126
How it was run: as §1

[15] = test system: NCI-H2342
How it was run: as §1

[16] = test system: NCI-H23
How it was run: as §1

[17] = test system: NCI-H2405
How it was run: as §1

[18] = test system: NCI-H322M
How it was run: as §1

[19] = test system: PC-14
How it was run: as §1

[20] = test system: RERF-LC-KJ
How it was run: as §1

[21] = test system: SK-LU-1
How it was run: as §1

[22] = test system: SW 1573
How it was run: as §1

[23] = test system: SW 900
How it was run: as §1

## COc1nc(C)cnc1NS(=O)(=O)c1cccnc1-c1ccc(-c2nnco2)cc1 [Zibotentan] + Cc1nc(Nc2ncc(C(=O)Nc3c(C)cccc3Cl)s2)cc(N2CCN(CCO)CC2)n1 [Dasatinib] (partner 0.075 µM)
[1]; first compound 0.08 µM
  relative viability: 0.604
[1]; first compound 0.253 µM
  relative viability: 0.646
[1]; first compound 0.8 µM
  relative viability: 0.498
[1]; first compound 2.53 µM
  relative viability: 0.626
[2]; first compound 0.08 µM
  relative viability: 0.612
[2]; first compound 0.253 µM
  relative viability: 0.529
[2]; first compound 0.8 µM
  relative viability: 0.392
[2]; first compound 2.53 µM
  relative viability: 0.572
[3]; first compound 0.08 µM
  relative viability: 0.338
[3]; first compound 0.8 µM
  relative viability: 0.295
[3]; first compound 2.53 µM
  relative viability: 0.369
[4]; first compound 0.08 µM
  relative viability: 0.375
[4]; first compound 0.253 µM
  relative viability: 0.287
[4]; first compound 0.8 µM
  relative viability: 0.331
[4]; first compound 2.53 µM
  relative viability: 0.33
[5]; first compound 0.08 µM
  relative viability: 0.513
[5]; first compound 0.253 µM
  relative viability: 0.313
[5]; first compound 0.8 µM
  relative viability: 0.391
[5]; first compound 2.53 µM
  relative viability: 0.309
[6]; first compound 0.08 µM
  relative viability: 0.394
[6]; first compound 0.253 µM
  relative viability: 0.267
[6]; first compound 0.8 µM
  relative viability: 0.247
[6]; first compound 2.53 µM
  relative viability: 0.384
[7]; first compound 0.08 µM
  relative viability: 0.47
[7]; first compound 0.253 µM
  relative viability: 0.562
[7]; first compound 0.8 µM
  relative viability: 0.451
[7]; first compound 2.53 µM
  relative viability: 0.531
[8]; first compound 0.08 µM
  relative viability: 0.293
[8]; first compound 0.253 µM
  relative viability: 0.221
[8]; first compound 0.8 µM
  relative viability: 0.275
[8]; first compound 2.53 µM
  relative viability: 0.318
[9]; first compound 0.08 µM
  relative viability: 0.712
[9]; first compound 0.253 µM
  relative viability: 0.694
[9]; first compound 0.8 µM
  relative viability: 0.596
[9]; first compound 2.53 µM
  relative viability: 0.487
[10]; first compound 0.08 µM
  relative viability: 0.247
[10]; first compound 0.253 µM
  relative viability: 0.22
[10]; first compound 0.8 µM
  relative viability: 0.206
[10]; first compound 2.53 µM
  relative viability: 0.244
[11]; first compound 0.08 µM
  relative viability: 0.493
[11]; first compound 0.253 µM
  relative viability: 0.435
[11]; first compound 0.8 µM
  relative viability: 0.476
[11]; first compound 2.53 µM
  relative viability: 0.397
[12]; first compound 0.08 µM
  relative viability: 0.883
[12]; first compound 0.253 µM
  relative viability: 0.706
[12]; first compound 0.8 µM
  relative viability: 0.821
[12]; first compound 2.53 µM
  relative viability: 0.907
[13]; first compound 0.08 µM
  relative viability: 0.378
[13]; first compound 0.253 µM
  relative viability: 0.341
[13]; first compound 0.8 µM
  relative viability: 0.307
[13]; first compound 2.53 µM
  relative viability: 0.376
[14]; first compound 0.08 µM
  relative viability: 0.632
[14]; first compound 0.8 µM
  relative viability: 0.53
[14]; first compound 2.53 µM
  relative viability: 0.685
[15]; first compound 0.08 µM
  relative viability: 0.354
[15]; first compound 0.253 µM
  relative viability: 0.308
[15]; first compound 0.8 µM
  relative viability: 0.309
[15]; first compound 2.53 µM
  relative viability: 0.314
[16]; first compound 0.08 µM
  relative viability: 0.859
[16]; first compound 0.253 µM
  relative viability: 0.711
[16]; first compound 0.8 µM
  relative viability: 0.553
[16]; first compound 2.53 µM
  relative viability: 0.928
[17]; first compound 0.08 µM
  relative viability: 0.238
[17]; first compound 0.253 µM
  relative viability: 0.193
[17]; first compound 0.8 µM
  relative viability: 0.218
[17]; first compound 2.53 µM
  relative viability: 0.212
[18]; first compound 0.08 µM
  relative viability: 0.235
[18]; first compound 0.253 µM
  relative viability: 0.245
[18]; first compound 0.8 µM
  relative viability: 0.27
[18]; first compound 2.53 µM
  relative viability: 0.269
[19]; first compound 0.08 µM
  relative viability: 0.26
[19]; first compound 0.253 µM
  relative viability: 0.172
[19]; first compound 0.8 µM
  relative viability: 0.243
[19]; first compound 2.53 µM
  relative viability: 0.277
[20]; first compound 0.08 µM
  relative viability: 0.863
[20]; first compound 0.8 µM
  relative viability: 0.671
[20]; first compound 2.53 µM
  relative viability: 0.749
[21]; first compound 0.08 µM
  relative viability: 0.17
[21]; first compound 0.253 µM
  relative viability: 0.172
[21]; first compound 0.8 µM
  relative viability: 0.189
[21]; first compound 2.53 µM
  relative viability: 0.198
[22]; first compound 0.08 µM
  relative viability: 0.565
[22]; first compound 0.8 µM
  relative viability: 0.537
[22]; first compound 2.53 µM
  relative viability: 0.556
[23]; first compound 0.08 µM
  relative viability: 0.633
[23]; first compound 0.253 µM
  relative viability: 0.59
[23]; first compound 0.8 µM
  relative viability: 0.562
[23]; first compound 2.53 µM
  relative viability: 0.911

## COc1nc(C)cnc1NS(=O)(=O)c1cccnc1-c1ccc(-c2nnco2)cc1 [Zibotentan] + N=C(N)NC(=N)NCCc1ccccc1 [Phenformin] (partner 250 µM)
[1]; first compound 0.08 µM
  relative viability: 0.563
[1]; first compound 0.253 µM
  relative viability: 0.42
[1]; first compound 0.8 µM
  relative viability: 0.469
[1]; first compound 2.53 µM
  relative viability: 0.543
[2]; first compound 0.08 µM
  relative viability: 0.242
[2]; first compound 0.253 µM
  relative viability: 0.238
[2]; first compound 0.8 µM
  relative viability: 0.249
[2]; first compound 2.53 µM
  relative viability: 0.245
[3]; first compound 0.08 µM
  relative viability: 0.541
[3]; first compound 0.8 µM
  relative viability: 0.61
[3]; first compound 2.53 µM
  relative viability: 0.538
[4]; first compound 0.08 µM
  relative viability: 0.287
[4]; first compound 0.253 µM
  relative viability: 0.296
[4]; first compound 0.8 µM
  relative viability: 0.306
[4]; first compound 2.53 µM
  relative viability: 0.306
[5]; first compound 0.08 µM
  relative viability: 0.778
[5]; first compound 0.253 µM
  relative viability: 0.598
[5]; first compound 0.8 µM
  relative viability: 0.581
[5]; first compound 2.53 µM
  relative viability: 0.59
[6]; first compound 0.08 µM
  relative viability: 0.429
[6]; first compound 0.253 µM
  relative viability: 0.399
[6]; first compound 0.8 µM
  relative viability: 0.387
[6]; first compound 2.53 µM
  relative viability: 0.421
[7]; first compound 0.08 µM
  relative viability: 0.357
[7]; first compound 0.253 µM
  relative viability: 0.314
[7]; first compound 0.8 µM
  relative viability: 0.315
[7]; first compound 2.53 µM
  relative viability: 0.333
[8]; first compound 0.08 µM
  relative viability: 0.354
[8]; first compound 0.253 µM
  relative viability: 0.403
[8]; first compound 0.8 µM
  relative viability: 0.467
[8]; first compound 2.53 µM
  relative viability: 0.59
[9]; first compound 0.08 µM
  relative viability: 0.922
[9]; first compound 0.253 µM
  relative viability: 0.853
[9]; first compound 0.8 µM
  relative viability: 0.795
[9]; first compound 2.53 µM
  relative viability: 0.897
[10]; first compound 0.08 µM
  relative viability: 0.533
[10]; first compound 0.253 µM
  relative viability: 0.489
[10]; first compound 0.8 µM
  relative viability: 0.571
[10]; first compound 2.53 µM
  relative viability: 0.543
[11]; first compound 0.08 µM
  relative viability: 0.67
[11]; first compound 0.8 µM
  relative viability: 0.66
[11]; first compound 2.53 µM
  relative viability: 0.643
[12]; first compound 0.08 µM
  relative viability: 0.515
[12]; first compound 0.253 µM
  relative viability: 0.54
[12]; first compound 0.8 µM
  relative viability: 0.596
[12]; first compound 2.53 µM
  relative viability: 0.559
[13]; first compound 0.08 µM
  relative viability: 0.428
[13]; first compound 0.253 µM
  relative viability: 0.398
[13]; first compound 0.8 µM
  relative viability: 0.419
[13]; first compound 2.53 µM
  relative viability: 0.413
[14]; first compound 0.08 µM
  relative viability: 0.534
[14]; first compound 0.8 µM
  relative viability: 0.518
[14]; first compound 2.53 µM
  relative viability: 0.575
[15]; first compound 0.08 µM
  relative viability: 0.782
[15]; first compound 0.253 µM
  relative viability: 0.595
[15]; first compound 0.8 µM
  relative viability: 0.603
[15]; first compound 2.53 µM
  relative viability: 0.559
[16]; first compound 0.08 µM
  relative viability: 0.85
[16]; first compound 0.253 µM
  relative viability: 0.762
[16]; first compound 0.8 µM
  relative viability: 0.761
[16]; first compound 2.53 µM
  relative viability: 0.86
[17]; first compound 0.08 µM
  relative viability: 0.422
[17]; first compound 0.253 µM
  relative viability: 0.39
[17]; first compound 0.8 µM
  relative viability: 0.436
[17]; first compound 2.53 µM
  relative viability: 0.439
[18]; first compound 0.08 µM
  relative viability: 0.824
[18]; first compound 0.253 µM
  relative viability: 0.589
[18]; first compound 0.8 µM
  relative viability: 0.831
[18]; first compound 2.53 µM
  relative viability: 0.816
[19]; first compound 0.08 µM
  relative viability: 0.692
[19]; first compound 0.253 µM
  relative viability: 0.377
[19]; first compound 0.8 µM
  relative viability: 0.66
[19]; first compound 2.53 µM
  relative viability: 0.601
[20]; first compound 0.08 µM
  relative viability: 0.423
[20]; first compound 0.8 µM
  relative viability: 0.418
[20]; first compound 2.53 µM
  relative viability: 0.447
[21]; first compound 0.08 µM
  relative viability: 0.53
[21]; first compound 0.253 µM
  relative viability: 0.463
[21]; first compound 0.8 µM
  relative viability: 0.501
[21]; first compound 2.53 µM
  relative viability: 0.503
[22]; first compound 0.08 µM
  relative viability: 0.397
[22]; first compound 0.8 µM
  relative viability: 0.359
[22]; first compound 2.53 µM
  relative viability: 0.334
[23]; first compound 0.08 µM
  relative viability: 0.557
[23]; first compound 0.253 µM
  relative viability: 0.502
[23]; first compound 0.8 µM
  relative viability: 0.669
[23]; first compound 2.53 µM
  relative viability: 0.801
